Source: patent publication US20240246960A1 (adMare Therapeutics Society, priority 2021, published 2024)
Like-named read-outs stand apart in the source and are kept apart here.

Experiments:
FaDu cell line = assay: Prodrug activation in hypoxic stirred tumour cell suspensions; type: in vitro ADME; details: 10 μM, 4 hours
Description: Prodrug compounds were assayed to determine their stability and rate of activation in stirred cell suspensions under 0.2 vs 5% oxygen. Compounds were diluted 1:1000 from DMSO stocks to 10 μM final concentration in tumour cell suspensions (1% by cell volume) in MEM media containing 10% FBS, 10 mM glucose & 3.7 g/L sodium bicarbonate. Cell lines assayed included A253, A549, Detroit562, FaDu, HCT116, HEP G2, HT29, SCC25, SCC9, SiHa & TC32. Compounds and cells were then incubated for 4 hours under constant mixing at 37° C. under 5% CO2 and either 0.2 or 5% O2. Following the incubation period cellular activation of the compounds was assayed via MeOH extraction and HPLC quantification.

[1] = tested on: pH2AX induction in HCT116 ATM−/− multicellular tumour spheroids; assay: Prodrug radiation sensitization in multicellular tumour spheroids (pH2AX induction following radiation); type: cell-based; details: Homo sapiens, HCT-116, 20 Gy
Description: Prodrug compounds were assayed to determine their potency in 3D multicellular spheroids in media maintained under 20% vs […]. Multicellular tumour spheroids were grown to approximately 0.5 mm in diameter and irradiated with 20 Gy in combination with inhibitor test compounds to determine their potency using HCT116 and FaDu cell lines. Experiments were carried out in 96 well plates containing 0.7 mls of MEM media containing 10% FBS and 10 mM glucose under […] at 37° C. Following dilution of compounds 1:1000 from DMSO stocks, compounds were serially diluted from 10 μM down to 3.5 nM and 5-10 spheroids added. 96 well plates were constantly stirred to avoid spheroids settling during the course of the experiment. Endpoints were pDNA-PK (ser 2056) or pH2AX (ser 139) status in spheroid cryosections taken 1 or 2 hours following radiation and fixed immediately in formalin. Using tumour cell lines deficient in ATM improved the assay signal to noise and gH2AX readout. Using this assay prodrug activity could be compared in the more oxygenated outer spheroid layers versus less oxygenated hypoxic central cell layers.

[2] = Microsomal stability assay, human liver microsomes; type: in vitro ADME; details: for Microsomal Stability (human) % rem. 60 min: Example 11; for microsomal CLint at 0.1 uM: both sexes, human, liver microsomes, pH 7.4, Example 11
Description: Samples were then mixed and centrifuged. Supernatants were used for HPLC-MS/MS analysis. […] Peak areas corresponding to the test compound were recorded.

DNA-PK = target: T1, DNA-PK (Homo sapiens, UniProt P78527); assay: DNA-PK Assay for Biochemical Enzymatic Inhibition (ADP Glo Kinase assay); details: Table 2
T1 construct: purchased Invitrogen PR9107A
How it was run: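 Human DNA-PK (25 ng) preincubated 15 min with compounds (ten three-fold dilutions) in HEPES pH 7.5, MgCl2, KCl, calf thymus DNA buffer, then substrate 434.4 μM and ATP 64.4 μM (final) for 60 min at room temperature. ADP-Glo luminescence; percent inhibition fitted by four-parameter regression for IC50.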

[3] = target: T2, DNA-PK phosphorylation at Serine 2056 (Homo sapiens, UniProt P78527); assay: Cellular Assay for Inhibition of DNA-PK Phosphorylation at Serine 2056 (FaDu cells, neocarzinostatin, sandwich ELISA); type: cell-based; details: Table 2
T2 construct: host or cells: FaDu
How it was run: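 FaDu cells were pretreated with compound (0.3% DMSO) for 1 h, then exposed to neocarzinostatin at 1 μg/mL final for 2 h to induce DSBs. Protein-normalized lysates were assayed by MSD sandwich ELISA for total and pSer2056 DNA-PK. IC50 came from variable-slope fits of % inhibition relative to DMSO and NCS controls.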

[4] = 5% O2, inner layers, read-out: Prodrug 5% O2 Inner layers EC50
[5] = 5% O2, outer layers, read-out: Prodrug 5% O2 Outer layers EC50
[6] = 20% O2, outer layers, read-out: Prodrug 20% O2 Outer layers EC50

SMILES | Fraction of prodrug converted to active form, Hypoxic 0.2% O2 (FaDu cell line) | Fraction of prodrug converted to active form, Oxic 5% O2 (FaDu cell line) | EC50 [1, 4] [µM] | EC50 [1, 5] [µM] | EC50 [1, 6] [µM] | Microsomal Stability (human) % rem. 60 min [2] | microsomal CLint at 0.1 uM [2] [µL/min/mg] | IC50 (DNA-PK) [µM] | IC50 [3] [µM]
Cn1c(CN(c2cnc3cc(N4CCOCC4)nc(OC4CCC(Nc5ncc(C(F)(F)F)cn5)CC4)c3c2)S(C)(=O)=O)cnc1[N+](=O)[O-] (centres unmarked) [LFA023, N-[(3-Methyl-2-nitro-imidazol-4-yl)methyl]-N-[7-morpholino-5-[4-[[5-(trifluoromethyl)pyrimidin-2-yl]amino]cyclohexoxy]-1,6-naphthyridin-3-yl]methanesulfonamide] | B (B is 0.05 to 0.15) | D (D is 0 to 0.02) | 0.5 to 1 | 1 to 10 | 1 to 10 | F (% remaining = 25-50%) | < 116 |  | 
Cn1c(CN(c2cnc3cc(N4CCOCC4)nc(OC4CCC(Nc5ccn6nccc6n5)CC4)c3c2)S(C)(=O)=O)cnc1[N+](=O)[O-] (centres unmarked) [LFA035, N-[(3-Methyl-2-nitro-imidazol-4-yl)methyl]-N-[7-morpholino-5-[4-(pyrazolo[1,5-a]pyrimidin-5-ylamino)cyclohexoxy]-1,6-naphthyridin-3-yl]methanesulfonamide] | B (B is 0.05 to 0.15) | D (D is 0 to 0.02) | 0.01 to 0.5 | 1 to 10 | 1 to 10 |  |  |  | 
Cn1c(CN(c2cnc3cc(N4CCOCC4)nc(OC4CCC(Nc5ncccn5)CC4)c3c2)S(C)(=O)=O)cnc1[N+](=O)[O-] (centres unmarked) [LFA008, N-[(3-Methyl-2-nitro-imidazol-4-yl)methyl]-N-[7-morpholino-5-[4-(pyrimidin-2-ylamino)cyclohexoxy]-1,6-naphthyridin-3-yl]methanesulfonamide] | B (B is 0.05 to 0.15) | D (D is 0 to 0.02) | 0.01 to 0.5 | 0.5 to 1 | 1 to 10 |  |  | 0.01 to 0.15 | 
Cn1c(CN(c2cnc3cc(N4CCOCC4)nc(OC4CCC(Nc5ncc(C#N)cn5)CC4)c3c2)S(C)(=O)=O)cnc1[N+](=O)[O-] (centres unmarked) [LFA026, N-[5-[4-[(5-Cyanopyrimidin-2-yl)amino]cyclohexoxy]-7-morpholino-1,6-naphthyridin-3-yl]-N-[(3-methyl-2-nitro-imidazol-4-yl)methyl]methanesulfonamide] | B (B is 0.05 to 0.15) | D (D is 0 to 0.02) | 0.01 to 0.5 | 1 to 10 | 1 to 10 | E (% remaining = 0-25%) | > 116 |  | 
Cn1c(CN(c2cnc3cc(N4CCOCC4)nc(OC4CCC(n5ccnc5)CC4)c3c2)S(C)(=O)=O)cnc1[N+](=O)[O-] (centres unmarked) [LFA018, N-[5-(4-Imidazol-1-ylcyclohexoxy)-7-morpholino-1,6-naphthyridin-3-yl]-N-[(3-methyl-2-nitro-imidazol-4-yl)methyl]methanesulfonamide] | B (B is 0.05 to 0.15) | D (D is 0 to 0.02) | 1 to 10 | 1 to 10 | 1 to 10 |  |  | 0.01 to 0.15 | 10 to 30
